According to patent US10682316B2 (NOVA SOUTHEASTERN UNIVERSITY, priority 2010, dated 2020):
Where “and” joins values, the source holds several entries; their conditions need not be identical. Equal values may be shown once. Entries after “also recorded” stand apart in the source; their conditions may differ. Read-outs that look alike come from different tables or passages of the source.

Key:
[1] = Particle size measurement before and after size reduction (Mastersizer, NiComp 370, Zetasizer); format: physicochemical; settings: epinephrine base
Procedure: These techniques involve the use of oversaturated solutions of various solvents, particularly water and isopropanol, at various temperatures and pressures ranging from about 8,000 psi to 30,000 psi and to about 8.3° to 43.3° C. under various passes. […] The particles were lyophilized (freeze-dried) using a bench top lyophilizer (ART Inc.).

[2] = Visual observation of discoloration/stability after processing; format: physicochemical; settings: epinephrine bitartrate compared with epinephrine base
From the text: The main problem was discoloration (a brown color formed) due to degradation.

| Compound | Amount Dissolved % (solubility in water) [%] | mean±SD size before size reduction ([1]; Mastersizer (FIG. 3)) [μm] | Size Before Fabrication (nm) ([1]; Mastersizer, three measurements and mean) | Amount Dissolved % (solubility in acetone) [%] | Amount Dissolved % (solubility in acetonitrile) [%] | Amount Dissolved % (solubility in choloroform) [%] | Amount Dissolved % (solubility in dichloromethane (DCM)) [%] | Amount Dissolved % (solubility in ethyl acetate) [%] | Amount Dissolved % (solubility in hexane) [%] | Amount Dissolved % (solubility in isopropyl alcohol) [%] | Amount Dissolved % (solubility in methanol) [%] | Amount Dissolved % (solubility in tetrahydrofuran (THF)) [%] | Stability / discoloration under fabrication conditions (nanomilling) [2] |
| --- | --- | --- | --- | --- | --- | --- | --- | --- | --- | --- | --- | --- | --- |
| CNC[C@H](O)c1ccc(O)c(O)c1 [Epinephrine Base, epinephrine] | 2.67 | 32.91±0.33 | 33030 nm and 32530 nm and 33160 nm | – | – | – | – | – | – | – | – | – | – |
| CNC[C@H](O)c1ccc(O)c(O)c1 [Epinephrine Bit, epinephrine bitartrate] | – | – | – | 1.56 | 0.77 | 0.09 | 0.00 | 0.63 | 0.03 | 0.62 | 10.45 | 7.76 | more stable than the epinephrine base; also recorded: did not show any discoloration |
